Measured values published in patent publication US8642640B2, “1-phenylpyrrole derivatives” (Exelixis, Inc., priority 2008, dated 2014).

Experiments:
[1] = target: T1, human mineralocorticoid receptor (hMR) (Homo sapiens, UniProt P08235); assay: GAL4-hMR-LBD luciferase reporter assay in HEK293 cells with 1 nM aldosterone (Test Example 1); assay type: cell-based; conditions: for Emax: HEK293, read-out: Imax; for IC50: concentration showing Imax/2, HEK293, GAL4-hMR-LBD, 1 nM aldosterone, overnight, read-out: ICmax50;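 as to Imax: 0% is DMSO-only control and 100% is 1 nM aldosterone alone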
T1 construct: expressed in transfected cells; host or cells: HEK293
T1 sequence (P08235 726-964 limits assumed): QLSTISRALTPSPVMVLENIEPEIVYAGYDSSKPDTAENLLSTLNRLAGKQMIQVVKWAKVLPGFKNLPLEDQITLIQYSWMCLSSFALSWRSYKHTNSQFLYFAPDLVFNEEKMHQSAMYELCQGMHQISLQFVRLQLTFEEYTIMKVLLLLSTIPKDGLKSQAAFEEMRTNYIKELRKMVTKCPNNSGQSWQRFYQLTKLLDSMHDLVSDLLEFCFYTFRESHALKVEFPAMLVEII
Method: A plasmid pM-hMR-LBD expressing GAL4-hMR receptor, which has a ligand binding domain (LBD, corresponding to approximately 308 amino acids at the carboxy terminus) of human mineralocorticoid receptor (hMR, NM_000901) bonded to a DNA binding domain of yeast transcription factor GAL4 (corresponding to 147 amino acids at the amino terminus), was prepared. Reporter assay was conducted by using a reporter plasmid (such as plasmid pFR-Luc of […] CLONING SYSTEMS) including a luciferase gene, having a sequence (UAS sequence) which binds to the DNA binding domain of GAL4.
The plasmid pM-hMR-LBD and the reporter plasmid as obtained above were gene transferred into renal cell line HEK293 of human fetus by lipofection. On the next day, cells were collected by trypsin treatment, and dispensed with DMEM culture medium containing 5% of FBS treated by activated charcoal, to a white 96-well plate (Costar) with the amount of 95 microliter per well.
The test compounds were used as dissolved in dimethyl sulfoxide at a predetermined concentration, and the test compounds suitably diluted with culture media were added to the cells on the white 96-well plate so that the final concentration becomes 0.1%. […] After the addition, cultivation was carried out overnight.
On the next day, the culture media was removed, and then luciferase substrate (Wako Pure Chemical Industries, Ltd.) was prepared in accordance with the attached document and were added to each well by 50 microliters. Stirring was conducted for approximately 30 minutes, and the amount of luminescence was measured for each well by using Analyst (Molecular Devices), to obtain luciferase activity. A graph which plots relative luciferase activity values, when the luciferase activity value of Control group 1 was taken as 0% and the luciferase activity value of Control group 2 was taken as 100%, for each of the amount of the test compound addition group was made.

[2] = Plasma concentration after intragastric administration to cynomolgus monkey (Test Example 2); assay type: in vivo; conditions: for AUC, area under the plasma concentration versus time curve / Cmax: male cynomolgus monkey, 3 mg/kg intragastric in 0.5% MC, LC-MS/MS, plasma; for AUC, area under the plasma concentration versus time curve: noncompartment model; for Cmax: po, read-out: Cmax, maximum concentration
Method: Cynomolgus monkey (male) was used, and it was fasted from the day before administration of the test compound.
Administration samples were prepared by adding a 0.5% MC (methyl cellulose) solution to the Test Compound, so that the dose becomes 3 mg/2 mL/kg. Each of the administration samples was administered intragastrically to the cynomolgus monkey by using a tube. After the samples were administered, approximately 5 mL of 0.5% MC was administered. For each of the administration samples, a group of two cynomolgus monkeys was administered.
With respect to collection of blood, it was conducted by collecting approximately 0.5 mL of blood from crotch vein using a glass syringe treated with heparin, before administration, and 30 minutes, 1, 2, 4, 6, 8, 24 and 48 hours after administration. Blood was centrifuged (1,700×g, 15 min, 4° C.) to obtain plasma. Plasma was stored in a freezer (−20° C.) until pretreatment.
Preparation of standard solution and internal standard (IS) solution: Each of the Test Compounds was dissolved in DMSO (dimethyl sulfoxide) to prepare a solution of 10 mM each. Each of the compound solution was diluted with acetonitrile, and thus standard solution was prepared. Further, niflumic acid (Wako Pure Chemical Industries, Ltd.) was dissolved in DMSO at the concentration of 2 mM, followed by dilution with acetonitrile to prepare an IS solution of 2 μM.
Pretreatment of plasma samples: 20 μL of plasma sample was collected, and then 25 μL of purified water, 100 μL of acetonitrile, and 100 μL of methanol was added. For the preparation of a calibration curve, 25 μL of purified water, 20 μL of each of the standard solutions (acetonitrile solution), 80 μL of acetonitrile, and 100 μL of methanol were added to 20 μL of blank plasma. 40 μL of the acetonitrile solution of IS was added to all of the samples, and then the samples were stirred, filtered by suction using Captiva filter plate (Varian, Inc.), and then the filtrate was used as the sample for LC-MS/MS analysis.
Quantitative Determination of Test Compound: Concentration in plasma was analyzed by LC-MS/MS method for each Test Compound.
Analysis: Pharmacokinetic parameter was calculated from concentration of each of the drugs in plasma, by using WinNonlin Professional (Ver. 4.0.1, Pharsight Corporation). Here, Noncompartment model was used as the model for parameter calculation.

SMILES	Emax [1] [%]	IC50 [1] [nM]	AUC, area under the plasma concentration versus time curve [2] [ng·h/mL]	Cmax [2] [ng/mL]	concentration in plasma compared with Reference compound A and Reference compound B ([2]; summary of Table 16, cynomolgus monkey, 3 mg/kg)
CCc1c(C(=O)Nc2ccc(S(C)(=O)=O)cc2)cc(C[C@H](C)O)n1-c1ccc(F)cc1Cl (single isomer, unassigned) [Example 44 - isomer B]	98	12	16920	940	–
Cc1c(C(=O)Nc2ccc(S(C)(=O)=O)cc2)cc(CCO)n1-c1ccc(Cl)cc1C(F)(F)F (single isomer, unassigned) [Example 1 - isomer A, 1-[4-Chloro-2-(trifluoromethyl)phenyl]-5-(2-hydroxyethyl)-2-methyl-N-[4-(methylsulfonyl)phenyl]-1H-pyrrole-3-carboxamide]	87	3.7	14110	990	–
Cc1c(C(=O)Nc2ccc(S(N)(=O)=O)c(Cl)c2)cc(C[C@H](C)O)n1-c1ccc(F)cc1C(F)(F)F (single isomer, unassigned) [Example 12 - isomer B]	–	> 1000	–	–	–
Cc1c(C(=O)Nc2ccc(S(C)(=O)=O)cc2)cc(C[C@H](C)O)n1-c1ccc(F)cc1Cl [Example 40, 1-(2-Chloro-4-fluorophenyl)-5-[(2S)-2-hydroxypropyl]-2-methyl-N-[4-(methylsulfonyl)phenyl]-1H-pyrrole-3-carboxamide]	112	26	–	–	–
Cc1c(C(=O)Nc2ccc(S(C)(=O)=O)cc2)cc(C[C@H](C)O)n1-c1ccc(Cl)cc1-c1ccc(F)cc1 [Example 50, 1-(5-Chloro-4′-fluorobiphenyl-2-yl)-5-[(2S)-2-hydroxypropyl]-2-methyl-N-[4-(methylsulfonyl)phenyl]-1H-pyrrole-3-carboxamide]	114	2.7	–	–	–
Cc1c(C(=O)Nc2ccc(S(C)(=O)=O)cc2)cc(CCO)n1-c1ccc(F)cc1C(F)(F)F [Example 62, 1-[4-Fluoro-2-(trifluoromethyl)phenyl]-5-(2-hydroxyethyl)-2-methyl-N-[4-(methylsulfonyl)phenyl]-1H-pyrrole-3-carboxamide]	–	–	8060	660	considerably improved concentration in plasma
Cc1c(C(=O)Nc2ccc(S(C)(=O)=O)cc2)cc(C[C@H](C)O)n1-c1ccc(F)cc1OC(F)(F)F [Example 16, 1-[4-Fluoro-2-(trifluoromethoxy)phenyl]-5-[(2S)-2-hydroxypropyl]-2-methyl-N-[4-(methylsulfonyl)phenyl]-1H-pyrrole-3-carboxamide]	94	7.8	–	–	–
Cc1c(C(=O)Nc2ccc(S(C)(=O)=O)cc2)cc(CCF)n1-c1ccc(F)cc1OC(F)F (single isomer, unassigned) [Example 54 - isomer B, 1-[2-(Difluoromethoxy)-4-fluorophenyl]-5-(2-fluoroethyl)-2-methyl-N-[4-(methylsulfonyl)phenyl]-1H-pyrrole-3-carboxamide]	–	> 1000	–	–	–
Cc1cc(Cl)ccc1-n1c(CCF)cc(C(=O)Nc2ccc(S(C)(=O)=O)cc2)c1C (single isomer, unassigned) [Example 51 - isomer B, 1-(4-Chloro-2-methylphenyl)-5-(2-fluoroethyl)-2-methyl-N-[4-(methylsulfonyl)phenyl]-1H-pyrrole-3-carboxamide]	–	> 1000	–	–	–
Cc1c(C(=O)Nc2ccc(S(N)(=O)=O)c(Cl)c2)cc(C[C@H](C)O)n1-c1ccc(F)cc1C(F)(F)F [Example 12, N-[4-(Aminosulfonyl)-3-chlorophenyl]-1-[4-fluoro-2-(trifluoromethyl)phenyl]-5-[(2S)-2-hydroxypropyl]-2-methyl-1H-pyrrole-3-carboxamide]	108	6.8	–	–	–
Cc1c(C(=O)Nc2ccc(S(C)(=O)=O)cc2)cc(C[C@H](C)O)n1-c1ccc(Cl)cc1C(F)(F)F (single isomer, unassigned) [Example 6 - isomer B]	–	> 1000	–	–	–
Cc1c(C(=O)Nc2ccc(S(N)(=O)=O)c(Cl)c2)cc(C[C@H](C)O)n1-c1ccc(F)cc1Cl (single isomer, unassigned) [Example 49 - isomer A]	–	> 1000	–	–	–

More lines, main results first:

Emax [1] [%]	IC50 [1] [nM]	AUC, area under the plasma concentration versus time curve [2] [ng·h/mL]	Cmax [2] [ng/mL]	SMILES	concentration in plasma compared with Reference compound A and Reference compound B ([2]; summary of Table 16, cynomolgus monkey, 3 mg/kg)
119	3.4	31310	1600	Cc1c(C(=O)Nc2ccc(S(C)(=O)=O)cc2)cc(C[C@H](C)O)n1-c1ccc(F)cc1C(F)(F)F (single isomer, unassigned) [Example 5 - isomer A]	–
101	3.6	13490	1000	Cc1c(C(=O)Nc2ccc(S(C)(=O)=O)cc2)cc(C[C@H](C)O)n1-c1ccc(F)cc1OC(F)(F)F (single isomer, unassigned) [Example 16 - isomer A]	–
95	2.7	23860	1660	Cc1c(C(=O)Nc2ccc(S(C)(=O)=O)cc2)cc(C[C@H](C)O)n1-c1ccc(Cl)cc1OC(F)(F)F (single isomer, unassigned) [Example 42 - isomer B]	–
123	5.5	14820	1140	Cc1c(C(=O)Nc2ccc(S(C)(=O)=O)cc2)cc(C[C@H](C)O)n1-c1ccc(Cl)cc1Cl (single isomer, unassigned) [Example 43 - isomer A]	–
–	> 1000	–	–	Cc1c(C(=O)Nc2ccc(S(C)(=O)=O)cc2)cc(C[C@H](C)O)n1-c1ccc(Cl)cc1OC(F)(F)F (single isomer, unassigned) [Example 42 - isomer A]	–
114	21	–	–	Cc1c(C(=O)Nc2ccc(S(C)(=O)=O)cc2)cc(CCO)n1-c1ccc(F)cc1Cl (single isomer, unassigned) [Example 3 - isomer A, 1-(2-Chloro-4-fluorophenyl)-5-(2-hydroxyethyl)-2-methyl-N-[4-(methylsulfonyl)phenyl]-1H-pyrrole-3-carboxamide]	–
105	1.9	–	–	Cc1c(C(=O)Nc2ccc(S(C)(=O)=O)cc2)cc(C[C@H](C)O)n1-c1ccc(Cl)cc1Oc1ccc(F)cc1 (single isomer, unassigned) [Example 45 - isomer A]	–
125	3.9	–	–	Cc1c(C(=O)Nc2ccc(S(C)(=O)=O)cc2)cc(C[C@H](C)O)n1-c1ccc(F)cc1C(F)(F)F [Example 5, 1-[4-Fluoro-2-(trifluoromethyl)phenyl]-5-[(2S)-2-hydroxypropyl]-2-methyl-N-[4-(methylsulfonyl)phenyl]-1H-pyrrole-3-carboxamide]	–
